Read-outs that look alike come from different tables or passages of the source.

This is an account of results in paper PMC6017976, “Enzyme Kinetics and Molecular Docking Studies on Cytochrome 2B6, 2C19, 2E1, and 3A4 Activities by Sauchinone” (Molecules : A Journal of Synthetic Chemistry and Natural …, 2018).

One data set concerns the target T1, CYP2B6 (Homo sapiens, UniProt P20813).
T1 construct: pooled human liver microsomes from a mixed pool of 50 donors; tissue BD Gentest Co. 452156; host or cells: human liver microsomes, pool of 50 donors
T1 sequence (P20813 1-491): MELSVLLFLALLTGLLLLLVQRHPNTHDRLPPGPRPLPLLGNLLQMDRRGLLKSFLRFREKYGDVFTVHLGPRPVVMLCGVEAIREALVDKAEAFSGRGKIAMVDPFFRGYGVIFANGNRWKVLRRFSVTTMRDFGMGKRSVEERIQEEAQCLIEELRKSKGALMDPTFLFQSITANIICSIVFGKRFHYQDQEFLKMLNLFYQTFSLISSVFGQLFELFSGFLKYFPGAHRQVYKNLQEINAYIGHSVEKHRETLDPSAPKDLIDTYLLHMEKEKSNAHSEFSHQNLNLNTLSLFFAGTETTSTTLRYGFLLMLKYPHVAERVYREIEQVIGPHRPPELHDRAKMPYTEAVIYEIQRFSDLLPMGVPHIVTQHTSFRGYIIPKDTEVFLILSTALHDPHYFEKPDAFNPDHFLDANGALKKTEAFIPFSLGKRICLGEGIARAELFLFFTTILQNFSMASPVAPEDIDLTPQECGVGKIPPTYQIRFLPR
Nature of the data set: Reversible inhibition (RI) of CYP2B6 activity in HLMs (cocktail probe assay). In kind it is in vitro ADME. The note with it: bupropion hydroxylation, 50 μM bupropion, 30 min incubation.

In data set [1] the target is T2, CYP2C19 (Homo sapiens, UniProt P33261).
T2 construct: pooled human liver microsomes from a mixed pool of 50 donors; tissue BD Gentest Co. 452156; host or cells: human liver microsomes, pool of 50 donors
The data set can be described thus: Reversible inhibition (RI) of CYP2C19 activity in HLMs (cocktail probe assay). In kind it is in vitro ADME. As to conditions: S-mephenytoin hydroxylation, 100 μM S-mephenytoin, 30 min incubation.

Data set [2] addresses T2, CYP2C19. Nature of the data set: Enzyme kinetic assay (Dixon plot, Ki) for CYP2C19 in HLMs. It is filed as in vitro ADME. As to the method:
(§1) Based on IC50 values, the Kis of sauchinone for CYP2B6, 2C19, 2E1, and 3A4 were determined. Different concentrations (20, 50, and 200 μM) of sauchinone were used. Other procedures were similar to those mentioned above regarding the reversible inhibitory effects of sauchinone. The inhibitory characteristics of sauchinone were initially estimated by nonlinear least squares regression analysis. Its Ki values were determined by Dixon plots.

The target of the next data set is T3, CYP2E1 (Homo sapiens, UniProt P05181).
T3 construct: pooled human liver microsomes from a mixed pool of 50 donors; tissue BD Gentest Co. 452156; host or cells: human liver microsomes, pool of 50 donors
Nature of the data set: Enzyme kinetic assay (Dixon plot, Ki) for CYP2E1 in HLMs. In kind it is in vitro ADME. How it is done:
as §1

The target of another data set is T4, CYP2C9 (Homo sapiens, UniProt P11712).
T4 construct: pooled human liver microsomes from a mixed pool of 50 donors; tissue BD Gentest Co. 452156; host or cells: human liver microsomes, pool of 50 donors
Nature of the data set: Time-dependent inhibition (TDI) IC50 shift assay on CYP2C9 in HLMs. In kind it is in vitro ADME. As to conditions: 10 min incubation.

A further data set deals with T5, CYP2D6 (Homo sapiens, UniProt P10635).
T5 construct: pooled human liver microsomes from a mixed pool of 50 donors; tissue BD Gentest Co. 452156; host or cells: human liver microsomes, pool of 50 donors
The data set can be described thus: Time-dependent inhibition (TDI) IC50 shift assay on CYP2D6 in HLMs. It is filed as in vitro ADME.

The next data set concerns the target T6, CYP3A4 (Homo sapiens, UniProt P08684).
T6 construct: pooled human liver microsomes from a mixed pool of 50 donors; tissue BD Gentest Co. 452156; host or cells: human liver microsomes, pool of 50 donors
Nature of the data set: Time-dependent inhibition (TDI) IC50 shift assay on CYP3A4 in HLMs. In kind it is in vitro ADME. As to conditions: for IC50: HLMs, 10 min incubation.

A further data set concerns the target T7, CYP1A2 (Homo sapiens, UniProt P05177).
T7 sequence (P05177 1-516): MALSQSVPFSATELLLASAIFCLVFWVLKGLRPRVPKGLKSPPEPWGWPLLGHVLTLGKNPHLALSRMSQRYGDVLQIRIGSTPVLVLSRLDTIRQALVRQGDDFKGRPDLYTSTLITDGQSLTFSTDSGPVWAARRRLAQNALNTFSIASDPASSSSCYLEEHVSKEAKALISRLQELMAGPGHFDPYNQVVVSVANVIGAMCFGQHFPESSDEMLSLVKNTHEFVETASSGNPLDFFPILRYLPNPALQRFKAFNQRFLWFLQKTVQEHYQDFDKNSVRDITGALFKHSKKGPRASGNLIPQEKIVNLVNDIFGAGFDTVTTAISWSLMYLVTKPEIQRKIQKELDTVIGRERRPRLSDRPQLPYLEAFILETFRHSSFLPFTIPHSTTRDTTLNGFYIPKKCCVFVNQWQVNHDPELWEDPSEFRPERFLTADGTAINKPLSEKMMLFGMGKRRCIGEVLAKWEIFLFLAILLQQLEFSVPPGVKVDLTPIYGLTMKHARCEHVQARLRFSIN
Nature of the data set: Reversible inhibition (RI) of CYP1A2 activity in HLMs (cocktail probe assay).

Data set [3] deals with T8, CYP2A6 (Homo sapiens, UniProt P11509).
T8 sequence (P11509 1-494): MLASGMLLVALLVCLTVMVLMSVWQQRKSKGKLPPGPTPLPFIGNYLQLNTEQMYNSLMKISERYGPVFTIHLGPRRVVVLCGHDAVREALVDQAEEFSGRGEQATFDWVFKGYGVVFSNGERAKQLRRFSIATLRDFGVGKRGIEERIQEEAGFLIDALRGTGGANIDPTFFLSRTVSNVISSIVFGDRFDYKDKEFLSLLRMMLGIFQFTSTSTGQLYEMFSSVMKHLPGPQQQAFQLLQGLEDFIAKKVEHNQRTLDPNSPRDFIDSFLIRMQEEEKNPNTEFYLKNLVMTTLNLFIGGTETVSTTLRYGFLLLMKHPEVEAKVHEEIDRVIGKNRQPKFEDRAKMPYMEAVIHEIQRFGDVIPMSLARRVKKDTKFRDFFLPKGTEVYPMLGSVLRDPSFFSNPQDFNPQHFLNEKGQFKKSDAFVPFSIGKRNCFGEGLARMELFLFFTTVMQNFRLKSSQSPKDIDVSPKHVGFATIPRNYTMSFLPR
Nature of the data set: Reversible inhibition (RI) of CYP2A6 activity in HLMs (cocktail probe assay).

Data set [4] has as its target T8, CYP2A6. The data set can be described thus: Time-dependent inhibition (TDI) IC50 shift assay on CYP2A6 in HLMs. It is filed as in vitro ADME. The note with it: 10 min incubation. On the set-up: pooled human liver microsomes from a mixed pool of 50 donors; tissue BD Gentest Co. 452156; host or cells: human liver microsomes, pool of 50 donors.

T6 sequence (P08684 whole entry): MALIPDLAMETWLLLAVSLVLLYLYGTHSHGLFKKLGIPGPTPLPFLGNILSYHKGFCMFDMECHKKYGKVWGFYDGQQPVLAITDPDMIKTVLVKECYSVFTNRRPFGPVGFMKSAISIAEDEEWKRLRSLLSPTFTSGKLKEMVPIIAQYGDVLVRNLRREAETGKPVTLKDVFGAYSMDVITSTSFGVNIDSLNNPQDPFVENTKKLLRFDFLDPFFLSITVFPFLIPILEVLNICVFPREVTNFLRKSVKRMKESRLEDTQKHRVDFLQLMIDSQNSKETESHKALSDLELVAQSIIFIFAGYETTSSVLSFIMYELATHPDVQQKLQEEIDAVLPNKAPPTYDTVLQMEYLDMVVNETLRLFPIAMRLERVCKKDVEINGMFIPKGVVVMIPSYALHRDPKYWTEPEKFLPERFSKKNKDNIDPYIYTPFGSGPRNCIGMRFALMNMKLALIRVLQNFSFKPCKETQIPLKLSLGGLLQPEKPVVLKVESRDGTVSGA
T2 sequence (P33261 whole entry): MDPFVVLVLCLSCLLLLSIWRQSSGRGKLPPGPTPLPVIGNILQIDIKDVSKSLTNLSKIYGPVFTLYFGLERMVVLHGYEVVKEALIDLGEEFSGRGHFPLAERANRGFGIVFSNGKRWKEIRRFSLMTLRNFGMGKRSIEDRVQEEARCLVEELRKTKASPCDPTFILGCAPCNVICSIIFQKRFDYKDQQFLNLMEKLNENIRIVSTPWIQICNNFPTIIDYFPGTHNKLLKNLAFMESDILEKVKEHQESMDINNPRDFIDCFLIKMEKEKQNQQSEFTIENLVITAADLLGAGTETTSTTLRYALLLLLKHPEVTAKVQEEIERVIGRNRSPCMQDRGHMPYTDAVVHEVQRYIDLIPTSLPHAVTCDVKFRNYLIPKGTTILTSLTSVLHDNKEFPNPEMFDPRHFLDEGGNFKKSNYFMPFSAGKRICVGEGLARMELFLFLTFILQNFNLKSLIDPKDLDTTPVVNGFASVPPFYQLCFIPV
T3 sequence (P05181 whole entry): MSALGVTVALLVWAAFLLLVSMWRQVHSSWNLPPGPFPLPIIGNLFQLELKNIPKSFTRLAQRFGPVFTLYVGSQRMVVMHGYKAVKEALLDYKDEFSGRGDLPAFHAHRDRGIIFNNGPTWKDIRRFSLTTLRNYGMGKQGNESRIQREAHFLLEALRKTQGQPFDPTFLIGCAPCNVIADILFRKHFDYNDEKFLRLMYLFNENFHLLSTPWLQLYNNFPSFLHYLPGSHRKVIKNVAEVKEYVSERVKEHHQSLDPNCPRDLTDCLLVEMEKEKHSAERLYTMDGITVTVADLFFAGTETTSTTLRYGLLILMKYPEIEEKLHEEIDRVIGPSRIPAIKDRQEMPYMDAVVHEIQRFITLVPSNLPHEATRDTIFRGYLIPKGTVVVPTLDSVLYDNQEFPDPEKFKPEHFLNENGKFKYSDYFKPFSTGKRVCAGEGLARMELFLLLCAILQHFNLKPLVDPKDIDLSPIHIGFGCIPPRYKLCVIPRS
T4 sequence (P11712 whole entry): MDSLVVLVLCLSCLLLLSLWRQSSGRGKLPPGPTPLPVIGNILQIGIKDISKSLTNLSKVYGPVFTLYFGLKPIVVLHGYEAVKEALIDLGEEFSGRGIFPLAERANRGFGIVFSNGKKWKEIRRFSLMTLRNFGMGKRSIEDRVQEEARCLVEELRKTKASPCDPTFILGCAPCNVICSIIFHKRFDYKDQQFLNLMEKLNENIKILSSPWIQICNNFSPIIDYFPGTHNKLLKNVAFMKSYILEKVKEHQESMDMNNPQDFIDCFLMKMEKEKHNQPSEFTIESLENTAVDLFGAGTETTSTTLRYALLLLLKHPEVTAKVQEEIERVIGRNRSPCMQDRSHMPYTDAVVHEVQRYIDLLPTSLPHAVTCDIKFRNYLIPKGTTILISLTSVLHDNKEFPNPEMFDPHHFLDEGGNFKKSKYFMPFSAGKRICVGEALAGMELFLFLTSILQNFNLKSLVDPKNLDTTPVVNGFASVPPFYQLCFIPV
T5 sequence (P10635 whole entry): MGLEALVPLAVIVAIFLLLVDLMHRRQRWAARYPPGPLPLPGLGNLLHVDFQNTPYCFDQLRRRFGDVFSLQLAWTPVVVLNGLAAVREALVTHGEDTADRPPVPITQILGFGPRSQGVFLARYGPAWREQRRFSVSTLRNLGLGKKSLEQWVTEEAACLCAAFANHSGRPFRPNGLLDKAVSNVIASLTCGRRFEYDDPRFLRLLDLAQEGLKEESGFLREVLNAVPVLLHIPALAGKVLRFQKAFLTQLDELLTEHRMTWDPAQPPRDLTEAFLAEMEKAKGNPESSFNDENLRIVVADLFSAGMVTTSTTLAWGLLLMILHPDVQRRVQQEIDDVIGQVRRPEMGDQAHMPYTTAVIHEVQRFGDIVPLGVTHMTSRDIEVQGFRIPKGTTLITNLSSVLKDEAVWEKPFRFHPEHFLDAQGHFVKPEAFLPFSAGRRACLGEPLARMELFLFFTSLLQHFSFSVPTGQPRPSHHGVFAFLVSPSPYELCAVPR

Turning to `C[C@@H]1[C@H]2c3cc4c(cc3O[C@@]35OCOC3=CC(=O)[C@H](C[C@H]1C)[C@@H]25)OCO4` [Sauchinone], the half-maximal inhibitory concentration (IC50) (commonly the point on the concentration scale where inhibition reaches its midpoint) against CYP2B6 is 0.458 ± 0.0932 µM; on CYP2C19 [1], 3.6 ± 2.54 µM; on CYP2C9 (0 min pre-incubation with NADPH, read-out: IC50 on CYP2C9, 0 min inactivation incubation (TDI)), more than 300 µM; on CYP2C9 (IC50 on CYP2C9, 30 min inactivation incubation (TDI), 30 min pre-incubation with NADPH) it was more than 300 µM; at CYP2D6 (0 min pre-incubation with NADPH, 10 min incubation, read-out: IC50 on CYP2D6, 0 min inactivation incubation (TDI)) it was more than 300 µM; on CYP2D6 (read-out: IC50 on CYP2D6, 30 min inactivation incubation (TDI), 30 min pre-incubation with NADPH, 10 min incubation) it was more than 300 µM. Also, the IC50 is 24.5 ± 51.3 µM on CYP3A4 (0 min pre-incubation with NADPH, read-out: IC50 on CYP3A4, 0 min inactivation incubation (TDI)); 1.14 ± 2.29 µM on CYP3A4 (IC50 on CYP3A4, 30 min inactivation incubation (TDI), 30 min pre-incubation with NADPH); more than 300 µM against CYP1A2; more than 300 µM against CYP2A6 [3]; more than 300 µM at CYP2A6 [4] (0 min pre-incubation with NADPH, read-out: IC50 on CYP2A6, 0 min inactivation incubation (TDI)); more than 300 µM on CYP2A6 [4] (IC50 on CYP2A6, 30 min inactivation incubation (TDI), 30 min pre-incubation with NADPH). For the same compound, the Ki at CYP2C19 [2] (sauchinone 20, 50, 200 μM, read-out: Apparent inhibition constant (Ki) for CYP2C19) worked out at 16.8 µM; at CYP2E1 (sauchinone 20, 50, 200 μM, read-out: Apparent inhibition constant (Ki) for CYP2E1), 41.7 µM. Also, on CYP2C19 [2] (visual inspection), the “Type of reversible inhibition of CYP2C19 (Dixon plot model)” value was “noncompetitive”. In addition, at CYP2E1 (visual inspection), the “Type of reversible inhibition of CYP2E1 (Dixon plot model)” value is given as “noncompetitive”. For the same compound, the IC50 shift at 10 min on CYP3A4 (human, human liver microsomes, pH 7.4, probe testosterone (substrate cocktail set)) came to 21.4.
